Experimental data taken from patent US20070202206A1, “Morinda Citrifolia Leaf Juice And Leaf Extract Based Formulations” (priority 2005, published 2007).

What was measured:
[1] = test system: Propionibacterium acnes (ATCC 6919); assay: Microbial in vitro assay, Propionibacterium acnes; assay type: cell-based; conditions: Microbial In Vitro Assays, Anaerobes
[2] = test system: human epidermoid carcinoma cell line-A431; assay: cells; assay type: cell-based; conditions: for Percent Grown: A431, 72-hour exposure
Description: In this example, assays were performed to detect changes in cell proliferation based on the ability of viable cells to cause alamarBlue to change from non-fluorescent blue to a reduced, fluorescent red form. With the results obtained from the alamarBlue reaction, cell proliferation can be quantified and metabolic activity of viable cells can be examined. Test compounds including Morinda citrifolia leaf extract, leaf juice, and roast leaf were tested for their effects on […]
Morinda citrifolia leaf extract, leaf juice, and roast leaf were provided by Tahitian Noni International, Inc. for in vitro anti-tumor studies. The Morinda citrifolia compounds were dissolved in sterile distilled water and then diluted with sterile distilled water to obtain initial working solutions of 10000, 1000, 100, 10, and 1 μg/ml for the leaf extract and roast leaf, as well as 100, 10, 1, 0.1 and 0.01% for the leaf juice.
The tumor cell line, A431 (human epidermoid carcinoma), obtained from American Type Culture Collection (ATCC CRL-1555), was incubated in an air atmosphere of 5% CO2 at 37° C. The culture medium was used with Dulbecco's Modified Eagle's medium, 90%; Fetal Bovine Serum, 10% and supplemented with 1% Antibiotic-Antimycotic.
The anti-proliferation for the test substances was evaluated. Aliquots of 100 μl of cell suspension (about 3×10^3/well) were placed in 96-well microtiter plates in an atmosphere of 5% CO2 at 37° C. […] At the end of incubation, 20 μl of 90% alamarBlue reagent was added to each well for another 6-hour incubation before detection of cell viability by fluorescent intensity. Fluorescent intensity was measured using a Spectrafluor Plus plate reader with excitation at 530 nm and demission at 590 nm.
IC50, TGI, and LC50 values were then determined. […] TGI (Total Growth Inhibition) is the test compound concentration where the number or mass of treated cells at the end of the experiment was equal to that at time0. […] The measured results were calculated by the following formula: PG(%)=100×(Mean Ftest−Mean Ftime0)/(Mean Fctrl−Mean Ftime0)
If (Mean Ftest−Mean Ftime0)<0, then PG(%)−100×(Mean Ftest−Mean Ftime0)/(Mean Ftime0−Mean Fblank)
Where: • PG=percent growth • Mean Ftime0=The average of 2 measured fluorescent intensities of reduced alamarBlue at the time just before exposure of cells to the test substance. • Mean Ftest=The average of 2 measured fluorescent intensities of alamarBlue after 72-hour exposure of cells to the test substance. • Mean Fctrl, =The average of 2 measured fluorescent intensities of alamarBlue after 72-hour incubation without the test substance. • Mean Fblank=The average of 2 measured fluorescent intensities of alamarBlue in medium without cells after 72-hour incubation.
A decrease of 50% or more (≧50%) in fluorescent intensity relative to the vehicle-treated control indicated significant cell growth inhibition, cytostatic or cytotoxic activity, and a semi-quantitative IC50, TGI, and LC50 were then determined by nonlinear regression using GraphPad Prism (GraphPad Software, USA).

| SMILES | Reference Compound Data, Concurrent [1] [µg/mL] | Percent Grown ([2]; concentration 0.001 μM) [%] | Percent Grown ([2]; concentration 0.01 μM) [%] | Percent Grown ([2]; concentration 0.1 μM) [%] | Percent Grown ([2]; concentration 1 μM) [%] | Percent Grown ([2]; concentration 10 μM) [%] | IC50 ([2]; Homo sapiens, A-431, Tumor, Skin (A431), semi-quantitative, nonlinear regression, read-out: IC50 (50% Inhibition Concentration)) [nM] | TGI (Total Growth Inhibition) ([2]; Tumor, Skin (A431), semi-quantitative, nonlinear regression) [nM] |
| --- | --- | --- | --- | --- | --- | --- | --- | --- |
| CC1(C)S[C@@H]2[C@H](NC(=O)[C@H](N)c3ccccc3)C(=O)N2[C@H]1C(=O)O [Ampicillin] | 0.1 | – | – | – | – | – | – | – |
| CO[C@@]12[C@H](COC(N)=O)C3=C(C(=O)C(C)=C(N)C3=O)N1C[C@@H]1N[C@@H]12 [Mitomycin] | – | 101 | 82 | 7 | 35 | 97 | 35 | 190 |
